Experimental findings from patent US20160339036A1, “Compound with Anti-Cancer Properties” (Velgene 3 Limited, priority 2013, published 2016) are described below.

In data set [1] the test system is PC3 human prostate carcinoma. Put plainly: PC3 human prostate tumour, implantation into prostate of CB17/scid mice. It is filed as in vivo, CB17/scid male mice. Particulars: 2 mg/kg i.p. once every second day from 13th post-implantation day, evaluated on 31st day. From the text:
(§1) Both the environment of the experimental animals and the execution of the actual experiments followed the up to date legislation and ethical regulations of Hungary. […] The experimental animals were derived from the The Jackson Laboratory (610 Main Street Bar Harbor, Me. 04609, USA). All personnel involved with the in vivo experiments are qualified to perform the described experiments.
The abdominal wall of CB17/scid male mice was opened at the level of the prostate under Nembutal anaesthesia (75 mg/kg). A single cell suspension (2.15×10^5 cell/20 μl) of the PC3 human prostate carcinoma cell line was implanted into the prostate using micro syringe (Hamilton). The abdominal was closed with a single layer of surgical thread (3/0 Vicryl), the skin was closed with outwards turning wound edges using surgical clips (Michel Wound Clips, 7.5 mm). After the wound healing completed, the animals were randomised, divided into two groups (9 treated, 9 control) and labelled with individual ear-markings on the 13th post-implantation day. From that day onwards, the treated group was intraperitoneally (i.p) treated with T0504-7238 (2 mg/kg-3:1 DMSO:Solutol solution) once every second day. […] The animals were weighed weekly and individual changes were recorded using the ear-marking system. […]
(§2) The results of our measurements were evaluated using One-Way ANOVA Post Hoc Scheffe Test.

Data set [2] has as its system tumour cell lines of Table 1 (CCRF-CEM, K562, MCF7, PANC1, B16, HT168M1, HCT116, PC3). In words: Proliferation assay (MTT) on tumour cell lines. Particulars: 0.6, 2 and 6 μM, evaluated 24, 48 and 72 hours after treatment, One-Way ANOVA Post Hoc Scheffe Test, FIG. 4. It is filed as cell-based, human; mouse (B16). Here is the method:
The first step was to examine the effect of T0504-7238 on the growth of tumour cells of the cell lines listed below in Table I. Our aim was to select the most therapy-sensitive cell lines as a preparation for the in vivo experiments.
Tumour cells were maintained in RPMI 1640 medium supplemented with 10% FBS (Sigma) and 1% penicillin/streptomycin solution (5,000 units penicillin and 5 mg streptomycin/ml) (Sigma) at 37° C. in a 5% CO2 atmosphere and used at confluence or at minimum 10^6 cells/ml density.
Single cell suspensions of different cell lines (Table 1) were put into 96-well microtiter plates for setting up 18-24 parallel samples per experimental group at 4×10^3 cell/well. The appropriate amount of T0504-7238 was suspended in a 3:1 DMSO: Solutol solution, which was then further diluted to the final concentration without the risk of precipitation. […]
Within each group samples were evaluated 24, 48 and 72 hours after treatment. […] After discarding of the culture medium plates were dried at room temperature, formazan crystals dissolved in dimethyl sulfoxide (100 μl/well) and the absorbance (OD) was measured at 570 nm using a microplate reader (Bio-Rad 550).
as §2

The subject of the next data set is HT168M1 human melanoma. In words: HT168M1 human melanoma, subcutaneous implantation in CB17/scid mice. It is filed as in vivo, CB17/scid female mice.
Source text: as §1
2,5×10^5 human melanoma (HT168M1) cells, from the in vitro cell line, were subcutaneously (s.c.) implanted into the dorsal region of adult CB17/scid female mice with congenital immunodeficiency under diethyl ether narcosis. The animals were randomised, divided into two groups (11 treated, 11 control) and labelled with individual ear-markings on the 10th post-implantation day. From that day onwards, the treated group was intraperitoneally (i.p) treated with T0504-7238 (2 mg/kg-3:1 DMSO:Solutol solution) once every second day. The control group was also treated with identical frequency to the treatment group i.p. injecting appropriately diluted 3:1 DMSO:Solutol solution. The animals were weighed weekly and individual changes were recorded using the ear-marking system. The tumour diameter was also individually recorded from the earliest palpable stage using a pair of compasses (caliper). Tumour volume was estimated usin the π/6×a×b^2 formula, where ‘a’ is the longer and ‘b’ is the shorter diameter. The experiment was terminated on the 41st post-implantation day—the animals were sacrificed using Nembutal. The evaluation was based on the weight of the primary tumour.
as §2

Turning to `O=C1C(Cl)=C(N2CCOCC2)C(=O)c2ccc(S(=O)(=O)N3CCOCC3)cc21` [T0504-7238], the “body weight, treated vs control animals at the time of evaluation” value in data set [1] (FIG. 6) is “no significant difference”. Further, the “average weight of the primary tumour, treated vs control group” value in data set [1] (FIG. 7) is on record as “lower in the treated group”. In addition, the “growth of all tumour cell lines” value in data set [2] was “dose-dependently, significantly decreased the growth”. Also, the “detectable tumor entirely necrotic, share of cases in treated group” value in the data set with HT168M1 human melanoma (2 mg/kg i.p. once every second day from 10th post-implantation day, evaluated on 41st day) amounted to 20%. Moreover, the “weight of the tumor, treated vs control group” value with HT168M1 human melanoma (2 mg/kg i.p. once every second day from 10th post-implantation day, evaluated on 41st day, FIG. 5) is “significantly lower (p=0.026)”. In addition, in the data set with HT168M1 human melanoma (2 mg/kg i.p. once every second day, 41st post-implantation day), the “average body weight of treated animals vs controls at the time of evaluation” value is on record as “this difference was not significant”.
